The values that follow come from patent US20110251143A1, “STABLE ELSAMITRUCIN SALT FORMULATIONS” (Spectrum Pharmaceuticals, Inc., priority 2007, published 2011).

A short description of data set [1]: solubility of the p-TSA salt checked by HPLC. It is filed as physicochemical. As to conditions: for solubility at pH 4 / Concentration (mg/mL) / solubility in water / Concentration: HPLC; for solubility in water / Concentration: slurry stirred at room temperature for six hours. From the text:
The solubility of the p-TSA salt in water was checked by HPLC after stirring the slurry at room temperature for six hours.

Data set [2] can be described thus: solid state stability, drying at elevated temperatures (NMR). The data set is classed as physicochemical. Conditions: vacuum oven 75° C. nine hours; 98° C. overnight; NMR 1:1 salt ratio. The protocol:
(§1) Elsamitrucin salts made in accordance with the teachings of the present disclosure were tested for stability. Two samples of the isolated p-TSA salt (40 mg each) were placed in a vacuum oven at 75° C. for nine hours. After this exposure, sample #1 was taken out, the temperature was increased to 98° C. and the second sample was dried overnight. […] The weight loss by TGA was approximately 2.5% for both samples. Karl Fischer analysis indicated the two lots still had water present: sample #1 had 4.0% water content and #2 had 4.6%. The p-TSA salt (16 mg) of elsamitrucin was dissolved in 1.6 mL of benzoate buffer (pH 4) and stirred at 50° C. for ten days. Samples for HPLC and MS were taken in 3, 5, and 10 days.

Data set [3] in a line: solution stability in benzoate buffer (HPLC, MS). The data set is classed as physicochemical. Conditions: benzoate buffer (pH 4), 50° C., ten days, samples at 3, 5, 10 days. As for the experimental part:
as §1

For data set [4], the system named is SK-MES-1 human non-small cell lung carcinoma. Description: MTT cell growth inhibition, SK-MES-1. Conditions: SK-MES-1, MTT, 5-10 days. The data set is classed as cell-based. The protocol:
(§2) The following experiment confirms that the elsamitrucin salts made in accordance with the teachings of the present disclosure retain their in vitro anti-neoplastic activity when compared to elsamitrucin base. Elsamitrucin and elsamitrucin tosylate were tested in vitro using: B16F10 (murine […]), HCT 116 (human colon), HT29 (human colon) and SK-MES-1 (human non-small cell lung carcinoma). Cell growth inhibition was evaluated in 96-well micro-culture plates with a semi-automated MTT (3-(4,5-dimethylthiazol-2-yl)-2,5-diphenyltetrazolium bromide) assay. […]
(§3) Cell culture plates seeded with test cells and various concentrations of elsamitrucin solutions were placed in a humidified incubator at 37° C., with CO2 and 95% air for 5-10 days. […] Absorbance was monitored at a wavelength of 595 nm, and at a reference wavelength of 650 nm, using a TECAN® GENios mocroplate reader. In all experiments, absorbance data was acquired for each agent at two overlapping concentration ranges. […]
(§4) The results of each test were stored and imported into PRISM® 3.03 for graphical analysis and determination of IC50 values. All results were graphed as a percentage of controlled absorbance versus the drug concentration. […]

The subject of data set [5] is B16F10 murine melanoma cells. Description: MTT cell growth inhibition, B16F10. It is filed as cell-based. As to conditions: 5-10 days. As for the experimental part:
as §2, §3, §4

The subject of data set [6] is HCT 116 human colon carcinoma. Description: MTT cell growth inhibition, HCT 116. It is filed as cell-based. Conditions: HCT 116, MTT, 5-10 days. As for the experimental part: as §2, §3, §4
In data set [7] the test system is HT29 human colon carcinoma. Description: MTT cell growth inhibition, HT29. It is filed as cell-based. As to conditions: 5-10 days. The protocol: as §2, §3, §4

A word on the solubility: it is the dissolved amount per volume that the medium holds. The IC50 is the concentration needed to halve the response being measured. A low value points to greater potency in that assay. On to “elsamitrucin tosylate [Elsamitrucin p-TSA Salt]”, for which the “Vial Concentration” value turned out to be 0.01789 M in data set [1] (pH 4 (benzoate buffer)) and 0.01891 M in data set [1] (water). Further, the “solubility at pH 4 / Concentration (mg/mL)” value in data set [1] (pH 4 (benzoate buffer)) amounted to 14.7 mg/mL; in data set [1] (pH 4 (benzoate buffer), listed as OVL-A-143) it was 14.78 mg/mL. Moreover, the “solubility in water / Concentration” value is 15.6 mg/mL in data set [1] (water) and 15.61 mg/mL in data set [1] (water, listed as OVL-A-137). For the same substance, the “decomposition in the solid state during drying” value in data set [2] is given as “no decomposition”. Moreover, in data set [3], the decomposition in solution result is reported as “No evidence of the decomposition product”. Moreover, the IC50 in data set [4] amounted to 45 nM; in data set [5], 28 nM; in data set [6] it was 79 nM; in data set [7], 105 nM.
